# Reference: patent US20110065723A1, “COMPOSITIONS OF N-BENZYL-3-(4-CHLOROPHENYL)-2-[METHYL-[2-OXO-2-(3,4,5-TRIMETHOXYPHENYL)ACETYL]AMINO]-N-[3-(4-PYRIDYL)-1-[2-(4-PYRIDYL)ETHYL]PROPYL]PROPANAMIDE AND USES THEREOF” (priority 2009, published 2011)
# Experiments:
# [1] = test system: Mycobacterium tuberculosis Erdman strain in macrophages; experiment: Mtb-THP-1 macrophage infection screening assay; type: cell-based
# in vivo = settings: C57BL/6, mouse, po, 10 mg/kg; for AUC(0-inf): RIF AUCinf Plasma; for Cmax: RIF Cmax Plasma
# [2] = test system: Mycobacterium tuberculosis Erdman strain (Mtb ATCC 35801); experiment: Susceptibility testing (broth microdilution MIC) with or without TIM; type: cell-based; settings: TIM 10 μg/ml
# Mtb Erdman = experiment: Mouse infection model (lung CFU); type: in vivo, C57BL/6 mice; settings: mice, lungs; TIM 200, INH 25 mg/kg; 4 weeks; FIG. 4B; not to the same extent as RIF, statistically significant
# [3] = RIF 10 mg/kg + TIM 200 mg/kg dosed 6 hours prior to RIF
compound,measurement,setting,value
"CO[C@H]1/C=C/O[C@@]2(C)Oc3c(C)c(O)c4c(O)c(c(/C=N/N5CCN(C)CC5)c(O)c4c3C2=O)NC(=O)/C(C)=C\C=C\[C@H](C)[C@H](O)[C@@H](C)[C@@H](O)[C@@H](C)[C@H](OC(C)=O)[C@@H]1C [RIF, rifampicin]",Log10 CFU,[1]; Drug conc. 0.04 ug/mL,4.71 Log10 CFU
same,Log10 CFU,[1]; Drug conc. 0.1 ug/mL,4.47 Log10 CFU
same,Log10 CFU,[1]; Drug conc. 0.4 ug/mL,4.58 Log10 CFU
same,Log10 CFU,[1]; Drug conc. 1.1 ug/mL,3.98 Log10 CFU
same,Log10 CFU,[1]; Drug conc. 3.3 ug/mL,1.94 Log10 CFU
same,Log10 CFU,[1]; Drug conc. 10 ug/mL,2.12 Log10 CFU
same,Log10 CFU,[1]; Drug conc. 30 ug/mL,1.10 Log10 CFU
same,AUC(0-inf),in vivo; [3],153 µg·h/mL
same,AUC(0-inf),in vivo; RIF 10 mg/kg alone,152 µg·h/mL
same,Cmax,in vivo; [3],14900 ng/mL
same,Cmax,in vivo; RIF 10 mg/kg alone,19800 ng/mL
CCc1cc(C(N)=S)ccn1 [ethionamide],in vitro effect of TIM on the activity of the drug against Mtb,[2],no in vitro effect
CC(=O)NC[C@H]1CN(c2ccc(N3CCSCC3)c(F)c2)C(=O)O1 [U-100480],in vitro effect of TIM on the activity of the drug against Mtb,[2],no in vitro effect
CC(=O)NC[C@H]1CN(c2ccc(N3CCOCC3)c(F)c2)C(=O)O1 [Linezolid],in vitro effect of TIM on the activity of the drug against Mtb,[2],no in vitro effect
COc1c(N2CCNC(C)C2)c(F)cc2c(=O)c(C(=O)O)cn(C3CC3)c12 (centres unmarked) [gatifloxacin],in vitro effect of TIM on the activity of the drug against Mtb,[2],no in vitro effect
COc1nc2ccc(Br)cc2cc1[C@@H](c1ccccc1)[C@@](O)(CCN(C)C)c1cccc2ccccc12 [TMC-207],potentiating effect of TIM on the activity against Mtb,[2]; MIC without vs with TIM,15 fold
acriflavin,in vitro effect of TIM on the activity of the drug against Mtb,[2],no in vitro effect
"CO[C@H]1/C=C/O[C@@]2(C)Oc3c(C)c(O)c4c(O)c(c(/C=N/N5CCN(C6CCCC6)CC5)c(O)c4c3C2=O)NC(=O)/C(C)=C\C=C\[C@H](C)[C@H](O)[C@@H](C)[C@@H](O)[C@@H](C)[C@H](OC(C)=O)[C@@H]1C [Rifapentine, rifapentine]",in vitro effect of TIM on the activity of the drug against Mtb,[2],no in vitro effect
"NNC(=O)c1ccncc1 [Isoniazid, isoniazid]",in vitro effect of TIM on the activity of the drug against Mtb,[2],no in vitro effect
same,effect of TIM on activity in vivo,Mtb Erdman,does enhance INH activity in vivo
